According to publication PMC8162404, “Proteomimetic surface fragments distinguish targets by function” (Chemical Science, 2020):

Legend:
CaM [1] = biological target: T1, CaM (Bos taurus, UniProt P62157); assay: Pull-down assay with immobilized protein and LSM libraries; type: binding, bovine; conditions: H14 library; 1:2 stoichiometry assumed; read-out: Surface mapping KD (apparent)
T1 construct: made in house; host or cells: E. coli BL21 (DE3)
Summary of the method: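 His-tagged protein immobilized on Co-NTA resin, equilibrated 30 min at room temperature with LSM sublibraries (64 members, […]), equimolar protein to total probe. CaM buffer: 20 mM HEPES pH 7.4, 150 mM NaCl, 5 mM CaCl2. Bound fractions from HPLC-MS loss of unbound probe versus protein-free resin control; Kd derived.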

Gal-1 [2] = biological target: T2, Gal-1 (Homo sapiens, UniProt P09382); assay: as above; type: binding; conditions: H14 library; 1:1 binding assumed; read-out: Surface mapping KD (apparent)
T2 construct: made in house; host or cells: E. coli BL21(DE3)
Summary of the method: (§1)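 His-tagged protein immobilized on Co-NTA resin (64 µM) in 20 mM HEPES pH 7.4, 150 mM NaCl, equilibrated 30 min at room temperature with foldamer LSM sublibraries at equimolar total concentration. Unbound fractions quantified by HPLC-MS versus protein-free resin control; apparent KD assumes 1:1 binding.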

S100A4 [3] = biological target: T3, S100A4 (Homo sapiens, UniProt P26447); assay: as above; type: binding; conditions: for Kd: H14 library, 1:1 binding assumed, read-out: Surface mapping KD (apparent)
T3 construct: made in house; host or cells: Escherichia coli BL21(DE3)
Summary of the method: (§2)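 Buffers were HEPES pH 7.4 with 150 mM NaCl, plus 1 mM TCEP and 1 mM CaCl2 (50 mM HEPES) for S100A4 and S100B, 1 mM TCEP for Gal-1, and no additive for RecQ-WH. Immobilized protein at 64 µM was equilibrated 30 min with the LSM sublibrary, and unbound probes were measured by LC-MS.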

S100B [4] = biological target: T4, S100B (Homo sapiens, UniProt P04271); assay: as above; type: binding; conditions: for Kd: H14 library, 1:1 binding assumed, read-out: Surface mapping KD (apparent)
T4 construct: made in house; host or cells: Escherichia coli BL21(DE3)
T4 sequence (P04271 1-92): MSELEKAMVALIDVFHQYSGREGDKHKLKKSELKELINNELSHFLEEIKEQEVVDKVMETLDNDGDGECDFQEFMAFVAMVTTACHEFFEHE
Summary of the method: as §2

RecQ-WH [5] = biological target: T5, RecQ-WH (Escherichia coli, UniProt P15043); assay: as above; parameters: species or system E. coli; conditions: H14 library; 1:1 binding assumed; read-out: Surface mapping KD (apparent)
T5 construct: coding for residues 408– 523 of E. coli RecQ; made in house; host or cells: E. coli BL21(DE3)
Summary of the method: as §1

CaM [6] = biological target: T1, CaM; assay: Competition pull-down with native ligand TRPV1-Ct15; type: binding, bovine; conditions: H14 library; competitor peptide 200 µM; read-out: Surface mapping KD (apparent), competition
S100A4 [7] = biological target: T3, S100A4; assay: Competition pull-down with native ligand NMIIA (1893–1923); type: binding; conditions: H14 library; competitor peptide 200 µM; read-out: Surface mapping KD (apparent), competition
S100B [8] = biological target: T4, S100B; assay: Competition pull-down with native ligand RSK1 (689–735); type: binding; conditions: H14 library; competitor peptide 200 µM; read-out: Surface mapping KD (apparent), competition
RecQ-WH [9] = biological target: T5, RecQ-WH; assay: Competition pull-down with native ligand SSB-Ct8; type: binding, E. coli; conditions: H14 library; competitor peptide 200 µM; read-out: Surface mapping KD (apparent), competition
Gal-1 [10] = biological target: T2, Gal-1; assay: Competition pull-down with lactose; type: binding; conditions: H14 library; lactose 10 mM; read-out: Surface mapping KD (apparent), competition
Summary of the method: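 His6-tagged proteins immobilized on Co-NTA resin at 64 µM final with 64-member LSM foldamer sublibraries (1 M each, as printed) in pH 7.4 HEPES/NaCl buffers (Ca2+/TCEP per target), 30 min RT; competitor peptides 200 µM final, lactose 10 mM for Gal-1. Bound fractions from LC-MS loss vs protein-free resin; KD assuming 1:1 binding.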

[11] = H14 probes selected for validation

T3 sequence (P26447 whole entry): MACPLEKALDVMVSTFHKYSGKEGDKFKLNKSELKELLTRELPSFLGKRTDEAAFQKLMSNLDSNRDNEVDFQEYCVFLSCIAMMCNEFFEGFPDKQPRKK
T5 sequence (P15043 408-523): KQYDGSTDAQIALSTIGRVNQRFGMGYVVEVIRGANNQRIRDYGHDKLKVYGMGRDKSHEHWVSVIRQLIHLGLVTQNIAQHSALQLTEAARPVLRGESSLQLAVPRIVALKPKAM
T2 sequence (P09382 whole entry): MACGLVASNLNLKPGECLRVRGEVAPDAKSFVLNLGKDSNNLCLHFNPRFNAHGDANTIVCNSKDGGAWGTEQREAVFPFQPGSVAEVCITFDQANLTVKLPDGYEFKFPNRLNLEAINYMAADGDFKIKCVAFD

Compound	Kd (CaM [1]) [µM]	Kd (Gal-1 [2]) [µM]	Kd (S100A4 [3]) [µM]	Kd (S100B [4]) [µM]	Kd (RecQ-WH [5]) [µM]	Kd (CaM [6]) [µM]	Kd (S100A4 [7]) [µM]	Kd (S100B [8]) [µM]	Kd (RecQ-WH [9]) [µM]	Kd (Gal-1 [10]) [µM]	Affinity class of probe (high, medium, low) in pull-down (S100A4 [3]; [11])	Affinity class of probe (high, medium, low) in pull-down (S100B [4]; [11])
CC(C)C[C@@H](CC(=O)N[C@H]1CCCC[C@@H]1C(=O)N[C@H]1CCCC[C@@H]1C(=O)N[C@H](CC(=O)N[C@H]1CCCC[C@@H]1C(N)=O)Cc1c[nH]c2ccccc12)NC(=O)[C@H]1CCCC[C@@H]1N [H14 LW]	0.4	38	8	21	195	88	244	67	315	65	–	–
CC(C)[C@@H](CC(=O)N[C@H]1CCCC[C@@H]1C(N)=O)NC(=O)[C@H]1CCCC[C@@H]1NC(=O)[C@H]1CCCC[C@@H]1NC(=O)C[C@H](Cc1ccccc1)NC(=O)[C@H]1CCCC[C@@H]1N [H14 FV]	1.2	199	12	44	129	141	376	253	–	323	–	–
CC[C@H](C)[C@@H](CC(=O)N[C@H]1CCCC[C@@H]1C(N)=O)NC(=O)[C@H]1CCCC[C@@H]1NC(=O)[C@H]1CCCC[C@@H]1NC(=O)C[C@H](Cc1ccccc1)NC(=O)[C@H]1CCCC[C@@H]1N [H14 FI]	0.6	102	9	21	79	121	280	202	266	164	–	–
CSCC[C@@H](CC(=O)N[C@H]1CCCC[C@@H]1C(N)=O)NC(=O)[C@H]1CCCC[C@@H]1NC(=O)[C@H]1CCCC[C@@H]1NC(=O)C[C@H](CC(C)C)NC(=O)[C@H]1CCCC[C@@H]1N [H14 LM]	14	138	4	67	233	468	318	163	–	334	–	–
CC[C@H](C)[C@@H](CC(=O)N[C@H]1CCCC[C@@H]1C(N)=O)NC(=O)[C@H]1CCCC[C@@H]1NC(=O)[C@H]1CCCC[C@@H]1NC(=O)C[C@H](CC(C)C)NC(=O)[C@H]1CCCC[C@@H]1N [H14 LI]	16	24	2	19	160	280	101	147	355	50	–	–
CC[C@H](C)[C@@H](CC(=O)N[C@H]1CCCC[C@@H]1C(=O)N[C@H]1CCCC[C@@H]1C(=O)N[C@H](CC(=O)N[C@H]1CCCC[C@@H]1C(N)=O)Cc1c[nH]c2ccccc12)NC(=O)[C@H]1CCCC[C@@H]1N [H14 IW]	0.4	38	8	21	195	88	244	67	315	65	–	–
CC[C@H](C)[C@@H](CC(=O)N[C@H]1CCCC[C@@H]1C(=O)N[C@H]1CCCC[C@@H]1C(=O)N[C@H](CC(=O)N[C@H]1CCCC[C@@H]1C(N)=O)C(C)C)NC(=O)[C@H]1CCCC[C@@H]1N [H14 IV]	3	57	3	43	366	–	187	178	–	114	–	–
CC(C)C[C@@H](CC(=O)N[C@H]1CCCC[C@@H]1C(=O)N[C@H]1CCCC[C@@H]1C(=O)N[C@H](CC(=O)N[C@H]1CCCC[C@@H]1C(N)=O)C(C)C)NC(=O)[C@H]1CCCC[C@@H]1N [H14 LV]	3	68	5	56	177	–	192	213	–	128	–	–
CSCC[C@@H](CC(=O)N[C@H]1CCCC[C@@H]1C(=O)N[C@H]1CCCC[C@@H]1C(=O)N[C@H](CC(=O)N[C@H]1CCCC[C@@H]1C(N)=O)CC(C)C)NC(=O)[C@H]1CCCC[C@@H]1N [H14 ML]	3	145	11	62	226	435	447	269	–	235	–	–
CC(C)[C@@H](CC(=O)N[C@H]1CCCC[C@@H]1C(=O)N[C@H]1CCCC[C@@H]1C(=O)N[C@H](CC(=O)N[C@H]1CCCC[C@@H]1C(N)=O)Cc1ccccc1)NC(=O)[C@H]1CCCC[C@@H]1N [H14 VF]	5	93	3	20	347	239	474	91	–	193	–	–
CC[C@H](C)[C@@H](CC(=O)N[C@H]1CCCC[C@@H]1C(N)=O)NC(=O)[C@H]1CCCC[C@@H]1NC(=O)[C@H]1CCCC[C@@H]1NC(=O)C[C@H](CCSC)NC(=O)[C@H]1CCCC[C@@H]1N [H14 MI]	3	145	11	62	226	435	447	269	–	235	–	–
CC(C)C[C@@H](CC(=O)N[C@H]1CCCC[C@@H]1C(N)=O)NC(=O)[C@H]1CCCC[C@@H]1NC(=O)[C@H]1CCCC[C@@H]1NC(=O)C[C@@H](NC(=O)[C@H]1CCCC[C@@H]1N)C(C)C [H14 VL]	13	66	3	43	366	–	246	180	–	220	high	medium
CC[C@H](C)[C@@H](CC(=O)N[C@H]1CCCC[C@@H]1C(N)=O)NC(=O)[C@H]1CCCC[C@@H]1NC(=O)[C@H]1CCCC[C@@H]1NC(=O)C[C@@H](NC(=O)[C@H]1CCCC[C@@H]1N)C(C)C [H14 VI]	13	105	3	43	366	–	246	181	–	293	–	–
